# Source: patent publication US11839210B1, “Plant growth promoter with strigolactones regulation activities” (King Abdullah University of Science and Technology, priority 2017, dated 2023)
# What was measured:
# Zaxinone Synthase (ZAS) = experiment: qRT-PCR of ZAS transcript levels in rice after zaxinone or GR24; assay type: in vivo, rice (Nipponbare); conditions: WT rice, phosphate starvation, 5 μM, 6 h
# Description: (§1) Total RNA was extracted from the roots and shoots using a Qiagen Plant RNeasy Kit according to the manufacturer's instruction. cDNA was synthesized from 1 μg of total RNA using iScript cDNA Synthesis Kit (BIO-RAD Laboratories, Inc, 2000 Alfred Nobel Drive, Hercules, CA, Cat. No #170-8890) according to instructions in the user manual. For mycorrhizal samples, single-strand cDNA was synthesized from 1 μg of total RNA using Super-Script II (Invitrogen) according to instructions in the user manual. Primers used for real-time quantitative RT-PCR (qRT-PCR) analysis are listed below in Table 3. qRT-PCR was performed using SYBR Green Master Mix (Applied Biosystems; www.lifetechnologies.com) in a StepOnePlus (Life Technologies, Carlsbad, CA, USA). For mycorrhizal samples, qRT-PCR was performed using a Rotor-Gene Q 5plex HRM Platform (Qiagen). The 2-ΔCt method was used to calculate the relative gene expression levels and rice Ubiquitin (OsUBQ or OsRubQ1) gene was used as the internal control to normalize target gene expression.
# FIGS. 14A-14C show transcript levels of Zaxinone Synthase (ZAS) in wild type roots and shoots. In FIG. 14A, the relative expression levels of ZAS under normal (+Pi) and phosphate-starved (−Pi) conditions in Nipponbare wild-type (WT) roots and shoots is seen. The expression levels in the WT root were normalized to 1. In FIG. 14B, the relative expression levels of ZAS under −Pi conditions with 5 μM of Zaxinone and GR24 treatment in WT rice root and shoot is seen. Three weeks-old seedlings were transferred to new hydroponic pots containing fresh media with or without chemicals for 6 h. The expression levels in the WT-mock were normalized to 1 and the expression levels were detected by qRT-PCR. Ubiquitin was used as a reference gene. Bars represent mean±SD (n=3). Mock treatment (0.1% acetone). Different letters above each bar denote significant difference following a One-way ANOVA test (P<0.05).
# [1] = tested on: SL biosynthesis genes (D27, CCD7, CCD8 and CO); experiment: qRT-PCR of transcript levels of SL biosynthesis genes (all four together) in rice roots; assay type: in vivo; conditions: Shiokari wild-type and d3 seedlings, phosphate-starved, 5 μM, 6 h
# Description: For the analysis of SL transcript levels in the zas mutant, one week-old seedlings were grown hydroponically in half-strength modified Hoagland nutrient solution with K2HPO4·2H2O (+Pi) and without K2HPO4·2H2O (−Pi) for 7 days. Seedlings were further treated with zaxinone for 6 h and tissues were collected.
# as §1
# Two week-old seedlings were grown for another one week in −Pi solution and then transferred to new vials containing fresh −Pi solution with and without the indicated concentrations (2.5 μM, 5 μM, 10 μM and 20 μM) of zaxinone for 6 h and samples were collected. SL biosynthetic genes expression for D27 (FIG. 19A), CCD7 […], CCD8 (FIG. 19C), and CO (Carlactone oxidase-FIG. 19D) in WT and zas mutants. […] The expression levels were detected by quantitative RT-PCR. Ubiquitin was used as a reference gene and the expression levels in the WT-mock were normalized to 1. Bars represent mean±SD (n=3). Different letters above each bar denote significant difference following a One-way ANOVA test (P<0.05).
# Transcript levels of SL biosynthesis genes, D27 (FIG. 24C), CCD7/D17 (FIG. 24D), CCD8/D10 (FIG. 24E) and OsCO (Carlactone oxidase—FIG. 24F) in root tissues were collected for SL quantification. The expression levels were detected by qRT-PCR. Ubiquitin was used as a reference gene and the expression levels in the WT-mock were normalized to 1. Two week-old seedlings were grown for another one week in −Pi solution and then transferred to new vials containing fresh −Pi solution with and without 5 μM of zaxinone and GR24 for 6 h and samples were collected. Bars represent mean±SD (n=3). Different letters above each bar denote significant difference following a One-way ANOVA test (P<0.05).
smiles,measurement,setting,value
"CC1=C[C@H](O/C=C2/C(=O)O[C@@H]3c4ccccc4C[C@H]23)OC1=O [GR24, reference compound]",ZAS transcript levels in root tissues,Zaxinone Synthase (ZAS),negatively impacted
same,SL transcript levels in roots,[1],affected the transcript levels only in wild-type seedlings
